Laboratory results from PubChem BioAssay (NCI).
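Values below derive from 48-hour exposures of cells grown in 96-well plates, with endpoints linearly interpolated between the two concentrations bracketing the appropriate inhibition level. The concentration for full growth arrest is given as TGI.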

Columns and labels:
Test in all cases: NCI anticancer screen, dose series, 48 h
[1] = test system: K-562 leukemia
[2] = test system: SR leukemia
[3] = test system: HL-60(TB) leukemia
[4] = test system: SK-MEL-5 melanoma
[5] = test system: NCI-H23 lung
[6] = test system: HT29 colon
[7] = test system: XF 498 CNS
[8] = test system: UACC-62 melanoma
[9] = test system: MOLT-4 leukemia
[10] = test system: KM12 colon
[11] = test system: NCI-H226 lung
[12] = test system: SNB-19 CNS
[13] = test system: OVCAR-5 ovarian
[14] = test system: SNB-78 CNS
[15] = test system: LOX IMVI melanoma
[16] = test system: SK-MEL-2 melanoma
[17] = test system: SK-MEL-28 melanoma
[18] = test system: HCT-116 colon
[19] = test system: HCC-2998 colon
[20] = test system: U251 CNS
[21] = test system: LXFL 529 NSCLC
[22] = test system: DLD-1 colon
[23] = test system: UO-31 renal
[24] = test system: M14 melanoma
[25] = test system: HCT-15 colon
[26] = test system: OVCAR-8 ovarian
[27] = test system: COLO 205 colon
[28] = test system: CCRF-CEM leukemia
[29] = test system: RXF-631 renal
[30] = test system: ACHN renal
[31] = test system: IGROV1 ovarian
[32] = test system: SN12C renal
[33] = test system: SW-620 colon
[34] = test system: KM20L2 colon
[35] = test system: M19-MEL melanoma
[36] = test system: A549 NSCLC
[37] = test system: SF-268 CNS
[38] = test system: CAKI-1 renal
[39] = test system: NCI-H460 lung
[40] = test system: RPMI-8226 leukemia
[41] = test system: SF-539 CNS
[42] = test system: SF-295 CNS
[43] = test system: OVCAR-3 ovarian
[44] = test system: SNB-75 CNS
[45] = test system: UACC-257 melanoma
[46] = test system: NCI-H522 lung
[47] = test system: RXF 393 renal
[48] = test system: EKVX NSCLC
[49] = test system: OVCAR-4 ovarian
[50] = test system: 786-0 renal
[51] = test system: MALME-3M melanoma
[52] = test system: A498 renal
[53] = test system: HOP-62 NSCLC
[54] = test system: HOP-18 NSCLC
[55] = test system: SK-OV-3 ovarian
[56] = test system: TK-10 renal
[57] = test system: DMS 273 small cell lung

Work on `Cn1c(/C=C(\O)c2ccc(Cl)cc2)nc2ccccc21` yielded a TGI [1] of over 100 µM, a TGI [2] of over 100 µM and a TGI [3] of 77.1 µM. The TGI [4] was 92.4 µM, the TGI [5] was over 100 µM and the TGI [6] was over 100 µM. For the same compound, the TGI [7] was over 100 µM, the TGI [8] was over 100 µM and the TGI [9] was over 100 µM. The TGI [10] was over 100 µM, the TGI [11] was over 100 µM and the TGI [12] was over 100 µM. For the same compound, the TGI [13] was 67.7 µM, the TGI [14] was over 100 µM and the TGI [15] was over 100 µM. It also gave a TGI [16] of over 100 µM, a TGI [17] of over 100 µM and a TGI [18] of over 100 µM. The TGI [19] was over 100 µM, the TGI [20] was over 100 µM and the TGI [21] was over 100 µM. It also gave a TGI [22] of over 100 µM, a TGI [23] of 66.1 µM and a TGI [24] of over 100 µM. For the same compound, the TGI [25] was over 100 µM, the TGI [26] was over 100 µM and the TGI [27] was over 100 µM. For the same compound, the TGI [28] was over 100 µM, the TGI [29] was over 100 µM and the TGI [30] was over 100 µM. The TGI [31] was over 100 µM, the TGI [32] was over 100 µM and the TGI [33] was over 100 µM. For the same compound, the TGI [34] was 95.6 µM, the TGI [35] was over 100 µM and the TGI [36] was 69.4 µM. It also gave a TGI [37] of over 100 µM, a TGI [38] of 97 µM and a TGI [39] of over 100 µM. For the same compound, the TGI [40] was over 100 µM, the TGI [41] was over 100 µM and the TGI [42] was over 100 µM. The TGI [43] was over 100 µM, the TGI [44] was over 100 µM and the TGI [45] was 67.1 µM. For the same compound, the TGI [46] was over 100 µM, the TGI [47] was over 100 µM and the TGI [48] was 84.8 µM. It also gave a TGI [49] of over 100 µM, a TGI [50] of over 100 µM and a TGI [51] of over 100 µM.
With `N#CC(c1ccccc1)c1nc2ccc(=N)cc-2n(O)c1C(C#N)c1ccccc1` (centres undefined) the TGI [1] was over 100 µM, the TGI [2] was over 100 µM and the TGI [3] was over 100 µM. The TGI [5] was over 100 µM, the TGI [52] was over 100 µM and the TGI [6] was over 100 µM. It also gave a TGI [7] of over 100 µM, a TGI [8] of over 100 µM and a TGI [9] of over 100 µM. For the same compound, the TGI [53] was over 100 µM, the TGI [10] was over 100 µM and the TGI [11] was over 100 µM. For the same compound, the TGI [12] was over 100 µM, the TGI [13] was over 100 µM and the TGI [14] was over 100 µM. For the same compound, the TGI [15] was over 100 µM, the TGI [16] was over 100 µM and the TGI [17] was over 100 µM. The TGI [18] was over 100 µM, the TGI [54] was over 100 µM and the TGI [20] was over 100 µM. For the same compound, the TGI [55] was over 100 µM, the TGI [21] was over 100 µM and the TGI [22] was over 100 µM. It also gave a TGI [23] of over 100 µM, a TGI [24] of over 100 µM and a TGI [25] of over 100 µM. For the same compound, the TGI [26] was over 100 µM, the TGI [27] was over 100 µM and the TGI [28] was over 100 µM. The TGI [29] was over 100 µM, the TGI [30] was over 100 µM and the TGI [31] was over 100 µM. The TGI [32] was over 100 µM, the TGI [56] was over 100 µM and the TGI [33] was over 100 µM. It also gave a TGI [57] of over 100 µM, a TGI [34] of over 100 µM and a TGI [35] of over 100 µM. For the same compound, the TGI [36] was over 100 µM, the TGI [37] was over 100 µM and the TGI [38] was over 100 µM. For the same compound, the TGI [39] was over 100 µM, the TGI [41] was over 100 µM and the TGI [42] was over 100 µM. The TGI [43] was over 100 µM, the TGI [45] was over 100 µM and the TGI [46] was over 100 µM. It also gave a TGI [47] of over 100 µM, a TGI [48] of over 100 µM and a TGI [49] of over 100 µM. For the same compound, the TGI [50] was over 100 µM and the TGI [51] was over 100 µM.
